Assay results: patent US11090304B2 (Amgen Inc., priority 2018, dated 2021)

Each compound was assayed against GDP-bound KRAS protein (aa 1-169), containing both G12C and C118A amino acid substitutions (Homo sapiens, UniProt P01116, C118A/G12C) (assay: Coupled nucleotide exchange assay (SOS-mediated, AlphaScreen)). Conditions: 5 min compound pre-incubation.
Sequence of GDP-bound KRAS protein (aa 1-169), containing both G12C and C118A amino acid substitutions (P01116 1-169 isoform P01116-2 G12C/C118A): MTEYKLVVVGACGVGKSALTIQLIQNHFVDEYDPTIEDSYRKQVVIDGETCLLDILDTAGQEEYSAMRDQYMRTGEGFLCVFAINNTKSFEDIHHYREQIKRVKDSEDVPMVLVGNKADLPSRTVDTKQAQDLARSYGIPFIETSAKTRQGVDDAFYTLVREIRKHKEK
Assay type: biochemical
With `C=CC(=O)N1CCN(c2nc(=O)n(-c3ccccc3C(C)O)c3nc(-c4c(O)cccc4F)c(Cl)cc23)[C@@H](C)C1` (stereo partly drawn) [Example 60-27, 6-chloro-7-(2-fluoro-6-hydroxyphenyl)-1-(2-((1R)-1-hydroxyethyl)phenyl)-4-((2S)-2-methyl-4-(2-propenoyl)-1-piperazinyl)pyrido[2,3-d]pyrimidin-2(1H)-one | 6-chloro-7-(2-fluoro-6-hydroxyphenyl)-1-(2-((1S)-1-hydroxyethyl)phenyl)-4-((2S)-2-methyl-4-(2-propenoyl)-1-piperazinyl)pyrido[2,3-d]pyrimidin-2(1H)-one] the “Coupled exchange IC50 (5 min)” value was 1.3 | nda μM. `C=CC(=O)N1CCN(c2nc(=O)n(-c3c(C)cccc3C(C)C)c3nc(-c4c(O)cccc4F)c(F)cc23)C[C@@H]1C` [Example 63-1, 6-Fluoro-7-(2-fluoro-6-hydroxyphenyl)-1-(2-methyl-6-(2-propanyl)phenyl)-4-((3S)-3-methyl-4-(2-propenoyl)-1-piperazinyl)pyrido[2,3-d]pyrimidin-2(1H)-one] was tested, and the “Coupled exchange IC50 (5 min)” value was 2.15 | nda μM. For `C=CC(=O)N1CCN(c2nc(=O)n(-c3c(CC)cccc3CC)c3nc(N4CC[C@H](C)C4)c(Cl)cc23)[C@@H](C)C1` [Example 66-5, 6-chloro-1-(2,6-diethylphenyl)-4-((2S)-2-methyl-4-(2-propenoyl)-1-piperazinyl)-7-((3S)-3-methyl-1-pyrrolidinyl)pyrido[2,3-d]pyrimidin-2(1H)-one], the “Coupled exchange IC50 (5 min)” value was 21.2 | nda μM. For `C=CC(=O)N1CCN(c2nc(=O)n(-c3c(CC)cccc3CC)c3nc(N4CC[C@H](F)C4)c(Cl)cc23)[C@@H](C)C1` [Example 66-6, 6-chloro-1-(2,6-diethylphenyl)-7-((3S)-3-fluoro-1-pyrrolidinyl)-4-((2S)-2-methyl-4-(2-propenoyl)-1-piperazinyl)pyrido[2,3-d]pyrimidin-2(1H)-one], the “Coupled exchange IC50 (5 min)” value was 14.9 | nda μM. For `C=CC(=O)N1CCN(c2nc(=O)n(-c3c(CC)cccc3CC)c3nc(N4CC[C@@H](F)C4)c(Cl)cc23)[C@@H](C)C1` [Example 66-7, 6-chloro-1-(2,6-diethylphenyl)-7-((3R)-3-fluoro-1-pyrrolidinyl)-4-((2S)-2-methyl-4-(2-propenoyl)-1-piperazinyl)pyrido[2,3-d]pyrimidin-2(1H)-one], the “Coupled exchange IC50 (5 min)” value was 88 | nda μM. With `C=CC(=O)N1CCN(c2nc(=O)n(-c3c(CC)cccc3CC)c3nc(N4CCC[C@@H]4CO)c(Cl)cc23)[C@@H](C)C1` [Example 66-9, 6-chloro-1-(2,6-diethylphenyl)-7-((2R)-2-(hydroxymethyl)-1-pyrrolidinyl)-4-((2S)-2-methyl-4-(2-propenoyl)-1-piperazinyl)pyrido[2,3-d]pyrimidin-2(1H)-one] the “Coupled exchange IC50 (5 min)” value was 99.5 | nda μM. `C=CC(=O)N1CCN(c2nc(=O)n(-c3c(CC)cccc3CC)c3nc(N4CCC(C)C4)c(Cl)cc23)[C@@H](C)C1` (stereo partly drawn) [Example 66-10, 6-chloro-1-(2,6-diethylphenyl)-4-((2S)-2-methyl-4-(2-propenoyl)-1-piperazinyl)-7-(3-methyl-1-pyrrolidinyl)pyrido[2,3-d]pyrimidin-2(1H)-one] was tested, and the “Coupled exchange IC50 (5 min)” value was 26.4 | nda μM. `C=CC(=O)N1CCN(c2nc(=O)n(-c3c(CC)cccc3CC)c3nc(N4CCC(CC)C4)c(Cl)cc23)[C@@H](C)C1` (stereo partly drawn) [Example 66-11, 6-chloro-1-(2,6-diethylphenyl)-7-(3-ethyl-1-pyrrolidinyl)-4-((2S)-2-methyl-4-(2-propenoyl)-1-piperazinyl)pyrido[2,3-d]pyrimidin-2(1H)-one] was tested, and the “Coupled exchange IC50 (5 min)” value was 29 | nda μM. With `C=CC(=O)N1CCN(c2nc(=O)n(-c3c(CC)cccc3CC)c3nc(N4CCC(CC(C)C)C4)c(Cl)cc23)[C@@H](C)C1` (stereo partly drawn) [Example 66-12, 6-chloro-1-(2,6-diethylphenyl)-4-((2S)-2-methyl-4-(2-propenoyl)-1-piperazinyl)-7-(3-(2-methylpropyl)-1-pyrrolidinyl)pyrido[2,3-d]pyrimidin-2(1H)-one] the “Coupled exchange IC50 (5 min)” value was 65 | nda μM. In the case of `C=CC(=O)N1CCN(c2nc(=O)n(-c3c(CC)cccc3CC)c3nc(N4CCC(F)(F)C4)c(Cl)cc23)[C@@H](C)C1` [Example 66-14, 6-chloro-1-(2,6-diethylphenyl)-7-(3,3-difluoro-1-pyrrolidinyl)-4-((2S)-2-methyl-4-(2-propenoyl)-1-piperazinyl)pyrido[2,3-d]pyrimidin-2(1H)-one], the “Coupled exchange IC50 (5 min)” value is reported as 5.51 | nda μM. In the case of `C=CC(=O)N1CCN(c2nc(=O)n(-c3c(CC)cccc3CC)c3nc(N4CCOC(CC)C4)c(Cl)cc23)[C@@H](C)C1` (stereo partly drawn) [Example 66-15, 6-chloro-1-(2,6-diethylphenyl)-7-(2-ethyl-4-morpholinyl)-4-((2S)-2-methyl-4-(2-propenoyl)-1-piperazinyl)pyrido[2,3-d]pyrimidin-2(1H)-one], the “Coupled exchange IC50 (5 min)” value is reported as 89.7 | nda μM. `C=CC(=O)N1CCN(c2nc(=O)n(-c3c(CC)cccc3CC)c3nc(N4CCOC5(CCCC5)C4)c(Cl)cc23)[C@@H](C)C1` [Example 66-17, 6-chloro-1-(2,6-diethylphenyl)-4-((2S)-2-methyl-4-(2-propenoyl)-1-piperazinyl)-7-(6-oxa-9-azaspiro[4.5]decan-9-yl)pyrido[2,3-d]pyrimidin-2(1H)-one] was tested, and the “Coupled exchange IC50 (5 min)” value was 75.5 | nda μM. In the case of `C=CC(=O)N1CCN(c2nc(=O)n(-c3c(CC)cccc3CC)c3nc(N4CCOC(C(C)C)C4)c(Cl)cc23)[C@@H](C)C1` (stereo partly drawn) [Example 66-18, 6-chloro-1-(2,6-diethylphenyl)-4-((2S)-2-methyl-4-(2-propenoyl)-1-piperazinyl)-7-(2-(2-propanyl)-4-morpholinyl)pyrido[2,3-d]pyrimidin-2(1H)-one], the “Coupled exchange IC50 (5 min)” value is reported as 76.7 | nda μM. In the case of `C=CC(=O)N1CCN(c2nc(=O)n(-c3c(CC)cccc3CC)c3nc(N4CCC(CC)(CC)C4)c(Cl)cc23)[C@@H](C)C1` [Example 66-20, 6-chloro-1-(2,6-diethylphenyl)-7-(3,3-diethyl-1-pyrrolidinyl)-4-((2S)-2-methyl-4-(2-propenoyl)-1-piperazinyl)pyrido[2,3-d]pyrimidin-2(1H)-one], the “Coupled exchange IC50 (5 min)” value is reported as 28.2 | nda μM. `C=CC(=O)N1CCN(c2nc(=O)n(-c3c(CC)cccc3CC)c3nc(N4CCC(C(C)(C)C)C4)c(Cl)cc23)[C@@H](C)C1` (stereo partly drawn) [Example 66-21] was tested, and the “Coupled exchange IC50 (5 min)” value was 33 | nda μM. `C=CC(=O)N1CCN(c2nc(=O)n(-c3c(CC)cccc3CC)c3nc(N4CC[C@H](OC)C4)c(Cl)cc23)[C@@H](C)C1` [Example 66-22, 6-chloro-1-(2,6-diethylphenyl)-7-((3S)-3-methoxy-1-pyrrolidinyl)-4-((2S)-2-methyl-4-(2-propenoyl)-1-piperazinyl)pyrido[2,3-d]pyrimidin-2(1H)-one] was tested, and the “Coupled exchange IC50 (5 min)” value was 40.7 | nda μM. With `C=CC(=O)N1CCN(c2nc(=O)n(-c3c(CC)cccc3CC)c3nc(N4CCC[C@@H]4C#N)c(Cl)cc23)[C@@H](C)C1` [Example 66-23, (2R)-1-(6-chloro-1-(2,6-diethylphenyl)-4-((2S)-2-methyl-4-(2-propenoyl)-1-piperazinyl)-2-oxo-1,2-dihydropyrido[2,3-d]pyrimidin-7-yl)-2-pyrrolidinecarbonitrile] the “Coupled exchange IC50 (5 min)” value was 160 | nda μM. With `C=CC(=O)N1CCN(c2nc(=O)n(-c3c(CC)cccc3CC)c3nc(N4CCOC(C5CC5)C4)c(Cl)cc23)[C@@H](C)C1` (stereo partly drawn) [Example 66-25, 6-chloro-7-(2-cyclopropyl-4-morpholinyl)-1-(2,6-diethylphenyl)-4-((2S)-2-methyl-4-(2-propenoyl)-1-piperazinyl)pyrido[2,3-d]pyrimidin-2(1H)-one] the “Coupled exchange IC50 (5 min)” value was 95 | nda μM. For `C=CC(=O)N1CCN(c2nc(=O)n(-c3c(CC)cccc3CC)c3nc(N4CCC[C@H](C)C4)c(Cl)cc23)[C@@H](C)C1` [Example 66-28, 6-chloro-1-(2,6-diethylphenyl)-7-((3S)-3-methyl-1-piperindinyl)-4-((2S)-2-methyl-4-(2-propenoyl)-1-piperazinyl)pyrido[2,3-d]pyrimidin-2(1H)-one], the “Coupled exchange IC50 (5 min)” value was 16.6 | nda μM. In the case of `C=CC(=O)N1CCN(c2nc(=O)n(-c3c(CC)cccc3CC)c3nc(N4CCC(C)(C)CC4)c(Cl)cc23)[C@@H](C)C1` [Example 66-29, 6-chloro-1-(2,6-diethylphenyl)-7-(4,4-dimethyl-1-piperindinyl)-4-((2S)-2-methyl-4-(2-propenoyl)-1-piperazinyl)pyrido[2,3-d]pyrimidin-2(1H)-one], the “Coupled exchange IC50 (5 min)” value is reported as 25.3 | nda μM. For `C=CC(=O)N1CCN(c2nc(=O)n(-c3c(CC)cccc3CC)c3nc(N4CCOC[C@@H]4C)c(Cl)cc23)[C@@H](C)C1` [Example 66-30, 6-chloro-1-(2,6-diethylphenyl)-7-((3S)-3-methyl-4-morpholinyl)-4-((2S)-2-methyl-4-(2-propenoyl)-1-piperazinyl)pyrido[2,3-d]pyrimidin-2(1H)-one], the “Coupled exchange IC50 (5 min)” value was 16.05 | nda μM. `C=CC(=O)N1CCN(c2nc(=O)n(-c3c(CC)cccc3CC)c3nc(N4C[C@@H]5C[C@H]4CO5)c(Cl)cc23)[C@@H](C)C1` [Example 66-31, 6-chloro-1-(2,6-diethylphenyl)-4-((2S)-2-methyl-4-(2-propenoyl)-1-piperazinyl)-7-((1S,4S)-2-oxa-5-azabicyclo[2.2.1]heptan-5-yl)pyrido[2,3-d]pyrimidin-2(1H)-one] was tested, and the “Coupled exchange IC50 (5 min)” value was 84.25 | nda μM. With `C=CC(=O)N1CCN(c2nc(=O)n(-c3c(CC)cccc3CC)c3nc(N4CCOC[C@H]4C)c(Cl)cc23)[C@@H](C)C1` [Example 66-33, 6-chloro-1-(2,6-diethylphenyl)-7-((3R)-3-methyl-4-morpholinyl)-4-((2S)-2-methyl-4-(2-propenoyl)-1-piperazinyl)pyrido[2,3-d]pyrimidin-2(1H)-one] the “Coupled exchange IC50 (5 min)” value was 15.9 | nda μM. `C=CC(=O)N1CCN(c2nc(=O)n(-c3ccccc3C(C)C)c3nc(-c4ccncc4F)c(Cl)cc23)[C@@H](C)C1` [Example 67-1, 6-Chloro-7-(3-fluoro-4-pyridinyl)-4-((2S)-2-methyl-4-(2-propenoyl)-1-piperazinyl)-1-(2-(2-propanyl)phenyl)pyrido[2,3-d]pyrimidin-2(1H)-one] was tested, and the “Coupled exchange IC50 (5 min)” value was 3.51 | nda μM.
